A short description of series [1]: Hygroscopicity study by dynamic vapor sorption (DVS). The series is classed as physicochemical. The conditions noted are these: 25° C., RH 0%-90%-0%. The protocol: Experimental Example 2: Hygroscopicity study of crystalline form of the compound of formula (I)
Instrument model: SMS DVS Advantage
Test conditions: the sample (10-20 mg, the crystalline form prepared in Example 3) was placed in DVS sample tray for testing.
The detailed DVS parameters are as follows:
Balancing: dm/dt=0.01%/min (shortest: 10 min, longest: 180 min)
Drying: drying at 0% RH for 120 min
RH (%) test gradient: 10%
Range of RH (%) test gradient: 0%-90%-0%.

The nature of series [2]: Stability study of solid crystalline form (HPLC total impurities). The class given is physicochemical. How it is done: Experimental Example 1: Stability study of solid crystalline form of the compound of formula (I)
High performance liquid chromatography (HPLC) • The chromatographic conditions of the HPLC method are seen in table below: • Chromatography column: Zorbax SB C-18, 4.6 mm×150 mm, 5 μm (PDS-HPLC-007) • Mobile phase A: 0.1% TFA in water • Mobile phase B: 100% ACN
Preparation of sample: the sample was dissolved with a mixed solvent of acetonitrile and water (acetonitrile: water=50:50 (v/v))
Solid stability stakeout method
The stability of the compound in the following conditions was examined, and samples were taken at different time points to detect the content. About 5 mg of the crystalline form of the compound of formula (I) prepared in Example 2 was accurately weighted in duplicate, transferred to a dry and clean glass bottle, spread into a thin layer as test samples, and placed in experimental conditions of influential factors ((60° C.), (relative humidity 92.5%), illumination (total illumination of 1.2×10^6 Luxhr/near UV energy of 200 whr/m^2), (40° C., relative humidity 75%), or (60° C., relative humidity 75%)). The samples were covered with aluminum foils having holes, and thus completely exposed to the conditions. Sampling analysis was performed at 5 days, 10 days, 1 month, 2 months and 3 months. The samples were completely exposed to illumination (visible light of 1200000 Lux, UV of 200 W) at room temperature.

A further series relates to PDE4. Conditions: reported in literature; cited from earlier work.
The conditions of series [3]: reported in literature; cited from earlier work.
For series [4] the following is noted: reported in literature; cited from earlier work. This is another data set of the same source.

Here are results for two compounds from patent US20230060174A1, “PHARMACEUTICAL COMPOSITION OF TRICYCLIC PDE3/PDE4 DUAL INHIBITOR COMPOUND” (CHIA TAI TIANQING PHARMACEUTICAL GROUP CO., LTD., priority 2020, published 2023).

Turning to `CCOc1cc2c(cc1OC)-c1c/c(=N\c3c(C)cc(C)cc3C)n(CCNC(=O)c3c(O)nnn3C)c(=O)n1CC2`, the “Hygroscopicity (DVS)” value in series [1] is listed as “small hygroscopicity”. Besides, the Total impurities % was 0.10% in series [2] (40° C. + 75% RH - 1 month); 0.08% in series [2] (40° C. + 75% RH - 2 months); 0.09% in series [2] (40° C. + 75% RH - 3 months); 0.10% in series [2] (40° C. + 75% RH - 10 days); 0.10% in series [2] (60° C. + 75% RH - 1 month); 0.10% in series [2] (60° C. + 75% RH - 10 days). Also, the Total impurities % is on record as 0.10% in series [2] (60° C. - 5 days); 0.11% in series [2] (60° C. - 10 days); 0.11% in series [2] (92.5% RH - 5 days); 0.10% in series [2] (92.5% RH - 10 days); 0.11% in series [2] (Day 0); 0.10% in series [2] (Illumination (1.2×10^6 Lux hr, near UV 200 w hr/m^2)). Further, in series [2] (In the dark), the Total impurities % turned out to be 0.11%. Further, the “Stability in the conditions of high temperature, high humidity or illumination” value in series [2] (high temperature, high humidity or illumination, no increase of impurities) is reported as “good stability”.

As for `COc1cc2c(cc1OC)-c1c/c(=N\c3c(C)cc(C)cc3C)n(CCNC(N)=O)c(=O)n1CC2` [RPL554], the PDE4 inhibitory activity entry with PDE4 is on record as “unsatisfactory”. Also, in series [3], the Plasma clearance entry is listed as “high”. For the same compound, in series [4], the Solubility entry was “poor”.
